# Reference: patent US20230414607A1, “METHODS OF TREATMENT” (BOW RIVER LLC, priority 2017, published 2023)
# Target: CYP3A4 (Homo sapiens, UniProt P08684)
# Test: not given
# Details: in vivo; cited from earlier work
# Sequence of CYP3A4 (P08684 whole entry): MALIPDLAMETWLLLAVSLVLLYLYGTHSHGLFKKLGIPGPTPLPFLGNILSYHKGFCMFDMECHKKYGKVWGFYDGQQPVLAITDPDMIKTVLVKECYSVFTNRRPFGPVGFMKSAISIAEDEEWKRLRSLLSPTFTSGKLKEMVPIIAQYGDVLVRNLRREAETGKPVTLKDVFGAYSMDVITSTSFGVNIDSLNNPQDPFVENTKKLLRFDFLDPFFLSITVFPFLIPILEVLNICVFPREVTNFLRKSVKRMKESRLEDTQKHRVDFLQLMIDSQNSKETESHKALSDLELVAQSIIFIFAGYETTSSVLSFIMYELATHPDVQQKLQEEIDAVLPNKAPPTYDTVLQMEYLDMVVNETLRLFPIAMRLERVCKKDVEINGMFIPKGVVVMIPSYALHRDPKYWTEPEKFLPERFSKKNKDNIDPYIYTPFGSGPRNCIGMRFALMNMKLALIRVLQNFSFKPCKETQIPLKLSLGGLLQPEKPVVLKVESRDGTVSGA
Compound,"AUC co-administration levels, Fold change","AUC co-administration levels, Percent of baseline","Cmax co-administration levels, Fold change","Cmax co-administration levels, Percent of baseline"
COc1cc(Nc2c(C#N)cnc3cc(OCCCN4CCN(C)CC4)c(OC)cc23)c(Cl)cc1Cl [bosutinib],2 fold,200%,1.5 fold,150%
COc1cc(N2CCC(N3CCN(C)CC3)CC2)ccc1Nc1ncc(Cl)c(Nc2ccccc2P(C)(C)=O)n1 [brigatinib],2.01 fold,201%,1.21 fold,121%
CO[C@H]1C(=O)[C@]2(C)[C@@H](OC)C[C@H]3OC[C@@]3(OC(C)=O)[C@H]2[C@H](OC(=O)c2ccccc2)[C@]2(O)C[C@H](OC(=O)[C@H](O)[C@@H](NC(=O)OC(C)(C)C)c3ccccc3)C(C)=C1C2(C)C [cabazitaxel],1.25 fold,125%,,

# System: not listed separately
# Test: AUC and Cmax target safe levels of CYP3A4 substrate drugs (Table 1)
# Details: component of ivacaftor/tezacaftor
# Description: In various embodiments, the “Target safe levels” are non-limiting examples of the upper limit of fold change or percent of baseline where in some embodiments the benefits of treating the patient for the condition or disease for which the CYP3A4 substrate drug is indicated outweigh the risks associated with the effects of a drug-drug interaction. […] For purposes of the present methods, the blood plasma levels measured during co-administration of the CYP3A4 substrate drug with […] may be used to estimate the posaconazole DDI decay curve, e.g., using equation 1.
Compound,"AUC target safe level, Fold change","AUC target safe level, Percent of baseline","Cmax target safe level, Fold change","Cmax target safe level, Percent of baseline"
CC(C)(C)c1cc(C(C)(C)C)c(NC(=O)c2c[nH]c3ccccc3c2=O)cc1O [ivacaftor],2.95; fold,295%;,2.47; fold,247%;

# Same assay, conditions: human
Compound,"AUC target safe level, Fold change","AUC target safe level, Percent of baseline","Cmax target safe level, Fold change","Cmax target safe level, Percent of baseline"
CN(C(=O)c1ccccc1)[C@@H]1C[C@H]2O[C@@](C)([C@@H]1O)n1c3ccccc3c3c4c(c5c6ccccc6n2c5c31)C(=O)NC4 [CGP62221],3.5 fold,350%,,
COc1cc2c(cc1OC)[C@H]1C[C@@H](O)[C@H](CC(C)C)CN1CC2 [[+]-α-HTBZ],2.1 fold,210%,1.7 fold,170%
CNC(=O)c1ccc(N2C(=S)N(c3cnc(C#N)c(C(F)(F)F)c3)C(=O)C23CCC3)cc1F [apalutamide],1.24 fold,124%,1.38 fold,138%
O=c1ccc2ccc(OCCCCN3CCN(c4cccc5sccc45)CC3)cc2[nH]1 [brexpiprazole],2 fold,200%,1.2 fold,120%
CN(C)C(=O)N[C@H]1CC[C@H](CCN2CCN(c3cccc(Cl)c3Cl)CC2)CC1 [cariprazine],,400%,,
COc1c(OCCCN2CCOCC2)ccc2c1N=C(NC(=O)c1cnc(N)nc1)N1CCN=C21 [copanlisib],1.53 fold,153%,1.03 fold,103%
CC(=O)OCC(=O)[C@@]12N=C(C)O[C@@H]1C[C@H]1[C@@H]3CCC4=CC(=O)C=C[C@]4(C)[C@H]3[C@@H](O)C[C@@]12C [deflazacort],3 fold,300%,,
C[C@H](Nc1ncnc2[nH]cnc12)c1cc2cccc(Cl)c2c(=O)n1-c1ccccc1 [duvelisib],2 fold,200%,1.7 fold,170%
COc1cccc(-c2c(C)n(Cc3c(F)cccc3C(F)(F)F)c(=O)n(C[C@H](NCCCC(=O)O)c3ccccc3)c2=O)c1F [elagolix sodium],2.2 fold,220%,1.77 fold,177%
COc1cc(OC)cc(N(CCNC(C)C)c2ccc3ncc(-c4cnn(C)c4)nc3c2)c1 [erdafitinib],1.34 fold,134%,1.05 fold,105%
CCc1nc(C(N)=O)c(Nc2ccc(N3CCC(N4CCN(C)CC4)CC3)c(OC)c2)nc1NC1CCOCC1 [gilteritinib],2.2 fold,220%,1.20 fold,120%
CN1CC[C@@H](NC(=O)Nc2ccc(C#N)cc2)C[C@@H]1c1nc2ccccc2[nH]1 [glasdegib],2.4 fold,240%,1.4 fold,140%
C=CC(=O)N1CCC[C@@H](n2nc(-c3ccc(Oc4ccccc4)cc3)c3c(N)ncnc32)C1 [ibrutinib],,300%,,
CO[C@@H]1[C@H](N(C)C(=O)c2ccccc2)C[C@H]2O[C@]1(C)n1c3ccccc3c3c4c(c5c6ccccc6n2c5c31)C(=O)NC4 [midostaurin],10.4 fold,1040%,,
Cc1[nH]c2ccccc2c1CCNCc1ccc(/C=C/C(=O)NO)cc1 [panobinostat],1.73 fold,173%,1.62 fold,162%
CC(C)COc1ccc(CNC(=O)N(Cc2ccc(F)cc2)C2CCN(C)CC2)cc1 [pimavanserin],3 fold,300%,1.5 fold,150%
N#CC[C@H](C1CCCC1)n1cc(-c2ncnc3[nH]ccc23)cn1 [ruxolitinib],1.91 fold,191%,1.33 fold,133%
CC(C)(CO)c1cc2cc(NC(=O)C3(c4ccc5c(c4)OC(F)(F)O5)CC3)c(F)cc2n1C[C@@H](O)CO [tezacaftor],2.0 fold,200%,,
C[C@@H]1CCN(C(=O)CC#N)C[C@@H]1N(C)c1ncnc2[nH]ccc12 [tofacitinib],,175%,,
COc1cc2c(cc1OC)[C@H]1C[C@@H](OC(=O)[C@@H](N)C(C)C)[C@H](CC(C)C)CN1CC2 [valbenazine],val: 2.2 fold,val: 220%,val: 1.6 fold,val: 160%

# Same assay, conditions: upper limit where benefits outweigh risks; approximation, can vary by about ±25%
Compound,"AUC target safe level, Fold change","AUC target safe level, Percent of baseline","Cmax target safe level, Fold change","Cmax target safe level, Percent of baseline"
O=C1CCc2ccc(OCCCCN3CCN(c4cccc(Cl)c4Cl)CC3)cc2N1 [aripiprazole],1.7 fold,170%,1.4 fold,140%
CC(C)(C)c1cc(C(C)(C)C)c(NC(=O)c2c[nH]c3ccccc3c2=O)cc1O [ivacaftor],3 fold,300%,2.7 fold,270%
CC(C)(NC(=O)C1=C(O)[C@@H]2Oc3c(O)ccc4c3[C@@]23CCN(CC2CC2)[C@H](C4)[C@]3(O)C1)c1nc(-c2ccccc2)no1 [naldemedine],1.9 fold,190%,1.38 fold,138%
CCN(CC)CCNC(=O)c1c(C)[nH]c(/C=C2\C(=O)Nc3ccc(F)cc32)c1C [sunitinib],1.51 fold,151%,1.49 fold,149%
